{"source": "patent US6949383B2", "about": "(priority 1998, dated 2005)", "assay_type_in_all_cases": "cell-based, Escherichia coli", "key": {"[1]": {"tested_on": "dnaQ"}, "[2]": {"tested_on": "Wild-Type"}, "[3]": {"tested_on": "Super-Oflo.-resisting dnaQ", "test": "Minimum growth inhibiting concentration (MIC) of antibiotic substances"}, "[4]": {"tested_on": "dnaQ49 strain", "test": "Drug resistance reached by repeated mutagenesis and selection (Example 2)"}}}
{"smiles": "CC1COc2c(N3CCN(C)CC3)c(F)cc3c(=O)c(C(=O)O)cn1c23", "note": "(centres unmarked) [Ofloxacin]", "values": [{"measurement": "Minimum growth inhibiting concentration (MIC)", "setting": "[1]", "result": 0.0156}, {"measurement": "Minimum growth inhibiting concentration (MIC)", "setting": "[2]", "result": 0.0625}, {"measurement": "Minimum growth inhibiting concentration (MIC)", "setting": "[3]", "result": 1024}, {"measurement": "Concentration of Ofloxacin", "setting": "[4]; mutagenesis treatment for 1 time", "result": 0.001, "unit": "µg/mL"}, {"measurement": "Concentration of Ofloxacin", "setting": "[4]; mutagenesis treatments for 2 times", "result": 0.01, "unit": "µg/mL"}, {"measurement": "Concentration of Ofloxacin", "setting": "[4]; mutagenesis treatments for 3 times", "result": 0.1, "unit": "µg/mL"}, {"measurement": "Concentration of Ofloxacin", "setting": "[4]; mutagenesis treatments for 4 times", "result": 1, "unit": "µg/mL"}, {"measurement": "Concentration of Ofloxacin", "setting": "[4]; mutagenesis treatments for 5 times", "result": 10, "unit": "µg/mL"}, {"measurement": "Concentration of Ofloxacin", "setting": "[4]; mutagenesis treatments for 6 times", "result": 30, "unit": "µg/mL"}, {"measurement": "Concentration of Ofloxacin", "setting": "[4]; mutagenesis treatments for 7 times", "result": 50, "unit": "µg/mL"}, {"measurement": "Concentration of Ofloxacin", "setting": "[4]; mutagenesis treatments for 8 times", "result": 60, "unit": "µg/mL"}, {"measurement": "Concentration of Ofloxacin", "setting": "[4]; mutagenesis treatments for 9 times", "result": 70, "unit": "µg/mL"}, {"measurement": "Concentration of Ofloxacin", "setting": "[4]; mutagenesis treatments for 10 times", "result": 80, "unit": "µg/mL"}, {"measurement": "Concentration of Ofloxacin", "setting": "[4]; mutagenesis treatments for 11 times", "result": 90, "unit": "µg/mL"}, {"measurement": "Concentration of Ofloxacin", "setting": "[4]; mutagenesis treatments for 12 times", "result": 100, "unit": "µg/mL"}, {"measurement": "Concentration of Ofloxacin", "setting": "[4]; mutagenesis treatments for 13 times", "result": 120, "unit": "µg/mL"}, {"measurement": "Concentration of Ofloxacin", "setting": "[4]; mutagenesis treatments for 14 times", "result": 132, "unit": "µg/mL"}, {"measurement": "Concentration of Ofloxacin", "setting": "[4]; mutagenesis treatments for 15 times", "result": 144, "unit": "µg/mL"}, {"measurement": "Concentration of Ofloxacin", "setting": "[4]; mutagenesis treatments for 16 times", "result": 150, "unit": "µg/mL"}, {"measurement": "Concentration of Ofloxacin", "setting": "[4]; mutagenesis treatments for 17 times", "result": 156, "unit": "µg/mL"}, {"measurement": "Concentration of Ofloxacin", "setting": "[4]; mutagenesis treatments for 18 times", "result": 168, "unit": "µg/mL"}, {"measurement": "Concentration of Ofloxacin", "setting": "[4]; mutagenesis treatments for 19 times", "result": 180, "unit": "µg/mL"}, {"measurement": "Concentration of Ofloxacin", "setting": "[4]; mutagenesis treatments for 20 times", "result": 210, "unit": "µg/mL"}, {"measurement": "Concentration of Ofloxacin", "setting": "[4]; mutagenesis treatments for 21 times", "result": 240, "unit": "µg/mL"}, {"measurement": "Concentration of Ofloxacin", "setting": "[4]; mutagenesis treatments for 22 times", "result": 270, "unit": "µg/mL"}, {"measurement": "Concentration of Ofloxacin", "setting": "[4]; mutagenesis treatments for 23 times", "result": 300, "unit": "µg/mL"}, {"measurement": "Concentration of Ofloxacin", "setting": "[4]; mutagenesis treatments for 24 times", "result": 320, "unit": "µg/mL"}, {"measurement": "Concentration of Ofloxacin", "setting": "[4]; mutagenesis treatments for 25 times", "result": 330, "unit": "µg/mL"}, {"measurement": "Concentration of Ofloxacin", "setting": "[4]; mutagenesis treatments for 26 times", "result": 340, "unit": "µg/mL"}, {"measurement": "Concentration of Ofloxacin", "setting": "[4]; mutagenesis treatments for 27 times", "result": 350, "unit": "µg/mL"}, {"measurement": "Concentration of Ofloxacin", "setting": "[4]; mutagenesis treatments for 28 times", "result": 360, "unit": "µg/mL"}, {"measurement": "Concentration of Ofloxacin", "setting": "[4]; mutagenesis treatments for 29 times", "result": 370, "unit": "µg/mL"}, {"measurement": "Concentration of Ofloxacin", "setting": "[4]; mutagenesis treatments for 30 times", "result": 380, "unit": "µg/mL"}, {"measurement": "Concentration of Ofloxacin", "setting": "[4]; mutagenesis treatments for 31 times", "result": 400, "unit": "µg/mL"}, {"measurement": "Concentration of Ofloxacin", "setting": "[4]; mutagenesis treatments for 32 times", "result": 425, "unit": "µg/mL"}, {"measurement": "Concentration of Ofloxacin", "setting": "[4]; mutagenesis treatments for 33 times", "result": 450, "unit": "µg/mL"}, {"measurement": "Concentration of Ofloxacin", "setting": "[4]; mutagenesis treatments for 34 times", "result": 475, "unit": "µg/mL"}, {"measurement": "Concentration of Ofloxacin", "setting": "[4]; mutagenesis treatments for 35 times", "result": 500, "unit": "µg/mL"}]}
